From article PMC7156724, “Potent BRD4 inhibitor suppresses cancer cell-macrophage interaction” (Nature Communications, 2020)
Where “and” joins values, the source holds several entries; their conditions need not be identical. Identical values can stand only once. One block for each molecule: values may come before it.

Experiments:
[1] = Metabolic stability assay, rat liver microsomes; conditions: in % (unit assumed)
Experimental: (§1) 7. Metabolic stability assay. The metabolic profile of NHWD-870 was determined using mouse, rat, dog, monkey, and human liver microsomes using the protocols […]
(§2) No. Compound ID Exat Mass Stock Conc.
(§3) 1) 100 mM potassium phosphate buffer, PH7.4; 2) 10mM MgCI2
(§4) 1) Intermediate solution: Dilute 5 μL of compound or control from stock solution (10 mM) with 45 uL DMSO,then mixed with 450 μL 1:1 Methanol/Water (Conc.: 10 0 […]
(§5) 2) Working solution: Dilute 50 μL from intermediate solution with 450 μL 100 mM potassium phosphate buffer (Conc.: 10 μM, 4.5%MeOH)
(§6) (3) NADPH regenerating system (final Isocitric dehydrogenase conc.= 1 unit/mL at […]
(§7) 1) β-Nicotinamide adenine dinucleotide phosphate, Vendor: sigma Cat. No. N0505
(§8) 2) Isocitric acid, Vendor: Sigma Cat. No. I1252
(§9) 3) Isocitric dehydrogenase, Vendor: sigma Cat. No. I2002
(§10) (4) Liver microsome solution preparation (final concentration o f 0.5 mg protein/mL) […]
(§11) Cold ACN including 100 ng/mL Tolbutamide and 100 ng/mL Labetalol as internal […]
(§12) 1) Add 10 μL compound or control working solution/well to all plates (T0, T5, T10, T20, T30, T60, NCF60) except matrix blank.
(§13) 2) Dispense 680 μL/well microsome solution to 96-well plate as reserv oir according to […]
(§14) plate map. Then add 80 μL/well to every plate by Apricot, incubate the mixture of microsome solution and compound at 37℃ for about 10 min.
(§15) 3) Add 10 μL 100 mM potassium phosphate buffer/well to NCF60, incubate at 37℃, […]
(§16) 4) After pre-warming, dispense 90 μL/well NADPH regenerating system to 96-well plate as reservoir according to the plate map. Then add 10 μL/well to every plate by Apricot to start reaction.
(§17) 5) Incubate at 37℃, start timer 2.
(§18) 6) Add 300 (μL/well) stop solution (cold in 4℃, including 100 ng/mL Tolbutamide and 100 ng/mL Labetalol) to terminate the reaction.
(§19) 7) The sampling plates are shaked for approx 10 min.
(§20) 8) Samples are centrifuged at 4000 rpm for 20 min under 4℃.
(§21) 9) While centrifuging, load 8×new 96-well plate with 300 μL HPLC water, then transfer 100 μL supernatant, mixed for LC/MS/MS.
(§22) Use equation of first order kinetics to calculate t1/2 and Clin t(mic): […]
(§23) Equation of first order kinetics: […]

[2] = Metabolic stability assay, human liver microsomes; conditions: in % (unit assumed)
Experimental: as §1, §2, §3, §4, §5, §6, §7, §8, §9, §10, §11, §12, §13, §14, §15, §16, §17, §18, §19, §20, §21, §22, §23

[3] = Metabolic stability assay, dog liver microsomes; conditions: in % (unit assumed)
Experimental: as §1, §2, §3, §4, §5, §6, §7, §8, §9, §10, §11, §12, §13, §14, §15, §16, §17, §18, §19, §20, §21, §22, §23

[4] = Metabolic stability assay, mouse liver microsomes; conditions: in % (unit assumed)
Experimental: as §1, §2, §3, §4, §5, §6, §7, §8, §9, §10, §11, §12, §13, §14, §15, §16, §17, §18, §19, §20, §21, §22, §23

[5] = Metabolic stability assay, monkey liver microsomes; conditions: in % (unit assumed)
Experimental: as §1, §2, §3, §4, §5, §6, §7, §8, §9, §10, §11, §12, §13, §14, §15, §16, §17, §18, §19, §20, §21, §22, §23

[6] = tested on: TMD8 large B cell lymphoma; assay: TMD8 large B cell lymphoma model tumor growth; format: in vivo, mouse; conditions: Fig.3c TMD-8, 25mg/kg p.o. QD x 21D, n=6, individual animals
Source text: (§24) PO, oral administration; QD, once daily; BID, twice daily. b–d Tumor growth curves for A2780 ovarian tumor (n = 5) (b), TMD8 large B cell lymphoma (n = 6) (c), and B16F10 melanoma (n = 5) (d) bearing mice treated with the indicated compounds once daily for 11-21 days. e, f Tumor growth curves for A375 melanoma (n = 6) (e), and patient-derived xenograft (PDX) of melanoma (n = 5) (f) bearing mice treated with the indicated compounds once daily (5 days on, 2 days off) for 21 days. For d–f, NHWD-870 used is NHWD-870-HCl synthesized using Suzuki coupling route. Data are presented as mean ± SEM in (a, b, d, f) and mean + SEM in (c, e). p values were calculated using two-tailed, unpaired t tests. *p < 0.05; **p < 0.01; ***p < 0.001. Source data are provided as a Source Data file.
(§25) 4–6 weeks old female BALB/c nude mice were used for most experiments, with the exception of 6–8 weeks old female C57BL/6 mice were used for B16F10 experiments, and 6–8 weeks old male BALB/c nude mice and SD rats were used for pharmacokinetic experiments. All animals were purchased from Shanghai SIPPR-Bk Lab Animal Co., Ltd. All animals were housed under a regimen of 12 h light/12 h dark cycles and specific pathogen-free conditions. 5×10^6 NCI-H526, ES-2, MDA-MB231, A2780, A375, B16F10, and TMD-8 cells (0.1 ml) were injected subcutaneously into female nude mice. The melanoma patient-derived xenograft model was derived from a human melanoma sample (BRAF, NARS and NF1 wild type, and p53 mutant) removed from a patient in Xiangya Hospital. Surgically removed tumor fragments were implanted subcutaneously into female NSG mice. When the tumors grew to ~1000 mm^3, they were harvested and cryopreserved or immediately re-implanted for expansion or experiments. Mouse body weight and tumor sizes were measured every 3 days. Once the tumors grew to 150–200 mm^3, mice were treated with the compounds as described in the Figures. 1 × 10^6 A2780 cells (1 ml) were injected into the abdominal cavity of nude mice. Ascitic volume and tumor weight were measured by an electronic balance. All the procedures were evaluated and approved by the Institutional Animal Care and Use Committee of Central South University and Yale University.

[7] = tested on: B16F10 mouse melanoma; assay: B16F10 mouse melanoma syngeneic model tumor growth; format: in vivo, C57BL/6 mice; set-up: Tumor volume: unit not given here; conditions: Fig.3d, individual animals
Source text: as §24, §25

Remaining in rat liver microsomes (Sup Fig.6b) ([1]; time 0): 100
Remaining in rat liver microsomes (Sup Fig.6b) ([1]; time 5): 75.339
Remaining in rat liver microsomes (Sup Fig.6b) ([1]; time 10): 59.077
Remaining in rat liver microsomes (Sup Fig.6b) ([1]; time 20): 35.911
Remaining in rat liver microsomes (Sup Fig.6b) ([1]; time 30): 22.814
Remaining in rat liver microsomes (Sup Fig.6b) ([1]; time 60): 4.586
Remaining in Human liver microsomes (Sup Fig.6e) ([2]; time 0): 100
Remaining in Human liver microsomes (Sup Fig.6e) ([2]; time 5): 68.568
Remaining in Human liver microsomes (Sup Fig.6e) ([2]; time 10): 50.449
Remaining in Human liver microsomes (Sup Fig.6e) ([2]; time 20): 28.02
Remaining in Human liver microsomes (Sup Fig.6e) ([2]; time 30): 16.826
Remaining in Human liver microsomes (Sup Fig.6e) ([2]; time 60): 2.933
Remaining in Dog liver microsomes (Sup Fig.6c) ([3]; time 0): 100
Remaining in Dog liver microsomes (Sup Fig.6c) ([3]; time 5): 94.367
Remaining in Dog liver microsomes (Sup Fig.6c) ([3]; time 10): 98.224
Remaining in Dog liver microsomes (Sup Fig.6c) ([3]; time 20): 89.21
Remaining in Dog liver microsomes (Sup Fig.6c) ([3]; time 30): 87.634
Remaining in Dog liver microsomes (Sup Fig.6c) ([3]; time 60): 78.588
Remaining in mouse liver microsomes (Sup Fig.6a) ([4]; time 0): 100
Remaining in mouse liver microsomes (Sup Fig.6a) ([4]; time 5): 92.277
Remaining in mouse liver microsomes (Sup Fig.6a) ([4]; time 10): 89.557
Remaining in mouse liver microsomes (Sup Fig.6a) ([4]; time 20): 85.421
Remaining in mouse liver microsomes (Sup Fig.6a) ([4]; time 30): 78.177
Remaining in mouse liver microsomes (Sup Fig.6a) ([4]; time 60): 51.477
Remaining in Monkey liver microsomes (Sup Fig.6d) ([5]; time 0): 100
Remaining in Monkey liver microsomes (Sup Fig.6d) ([5]; time 5): 88.217
Remaining in Monkey liver microsomes (Sup Fig.6d) ([5]; time 10): 88.366
Remaining in Monkey liver microsomes (Sup Fig.6d) ([5]; time 20): 94.477
Remaining in Monkey liver microsomes (Sup Fig.6d) ([5]; time 30): 85.252
Remaining in Monkey liver microsomes (Sup Fig.6d) ([5]; time 60): 84.048
Compound: O=C(O)Cc1ccccc1Nc1c(Cl)cccc1Cl [Diclofenac]

Compound: C=CC(=O)N1CCC[C@@H](n2nc(-c3ccc(Oc4ccccc4)cc3)c3c(N)ncnc32)C1 [Ibrutinib, reference compound]
Tumor volume ([6]; day 0): 154.352 mm^3 and 126.234 mm^3 and 92.4707 mm^3 and 208.237 mm^3 and 189.187 mm^3 and 112.682 mm^3
Tumor volume ([6]; day 3): 237.85 mm^3 and 276.464 mm^3 and 91.3933 mm^3 and 282.765 mm^3 and 163.343 mm^3 and 107.8 mm^3
Tumor volume ([6]; day 7): 352.832 mm^3 and 423.619 mm^3 and 205.187 mm^3 and 365.185 mm^3 and 345.367 mm^3 and 135.53 mm^3
Tumor volume ([6]; day 10): 473.704 mm^3 and 751.605 mm^3 and 389.433 mm^3 and 510.345 mm^3 and 486.864 mm^3 and 230.549 mm^3
Tumor volume ([6]; day 14): 835.097 mm^3 and 1026.1 mm^3 and 435.155 mm^3 and 707.68 mm^3 and 720.134 mm^3 and 302.373 mm^3
Tumor volume ([6]; day 17): 1017.47 mm^3 and 1815.12 mm^3 and 476.012 mm^3 and 822.388 mm^3 and 594.62 mm^3 and 293.12 mm^3
Tumor volume ([6]; day 21): 1538.44 mm^3 and 2230.02 mm^3 and 727.616 mm^3 and 1254.35 mm^3 and 985.284 mm^3 and 887.285 mm^3

Compound: Cc1nnn(C)c1-c1cnc2c3c4cnn(C)c4ccc3n([C@H](c3ccccc3)C3CCOCC3)c2c1 [compound 870]
Tumor volume ([7]; 1mg/kg, day 0): 0
Tumor volume ([7]; 1mg/kg, day 3): 56 and 75 and 36 and 4 and 137
Tumor volume ([7]; 1mg/kg, day 7): 88 and 81 and 51 and 56 and 405
Tumor volume ([7]; 1mg/kg, day 11): 198 and 63 and 191 and 162 and 405
Tumor volume ([7]; 2mg/kg, day 0): 0
Tumor volume ([7]; 2mg/kg, day 3): 14 and 36 and 172 and 3.5 and 2.5
Tumor volume ([7]; 2mg/kg, day 7): 40 and 75 and 288 and 2.1 and 2.5
Tumor volume ([7]; 2mg/kg, day 11): 0 and 237 and 500 and 2.5 and 1.6
